The values that follow come from patent publication US12168763B2, “Microorganisms and methods for reducing bacterial contamination” (Melio Peptide Systems Inc., priority 2020, dated 2024).

For one assay, the system named is L. reuteri CCUG 32624. Nature of the assay: Soft-agar overlay screen of peptide-expressing yeast (BY4742).
The test system of assay [1] is L. fermentum NCCB 46038. The description is as above.
Assay [2] deals with P. pentosaceus NCCB 31016. The assay is described as above. The conditions noted are these: soft-agar overlay, peptide-expressing yeast.
A further assay deals with E. faecium NCCB 86023. Described as above.
A further assay deals with W. confusa CCUG30113. Described as above.
The subject of the next assay is W. confusa CCUG30943. The assay is described as above.
Another assay relates to L. lactis NCCB 26066. Described as above.
In assay [3] the test system is L. delbrueckii CCUG 34222. Described as above.
The test system of assay [4] is P. pentosaceus NCCB 31016. Nature of the assay: Soft-agar overlay assay of S. cerevisiae M2 strain expressing pediocin PA-1 variants. The note with it: S. cerevisiae M2 transformants; compared to wild-type pediocin PA-1.
The test system of assay [5] is L. delbrueckii CCUG 34222T. The assay is described as above. The conditions noted are these: S. cerevisiae M2 transformants; compared to wild-type pediocin PA-1.
The subject of assay [6] is L. fermentum NCCB 46038. Kind of assay: Soft-agar overlay assay of S. cerevisiae BY4742 secreting persulcatusin variants from pHVXU plasmids. The conditions noted are these: alanine scanning of persulcatusin; relative to wild-type; soft-agar overlay.

“Also recorded” adds a separate entry of the source. Where no end group is shown, it is not given here.

For Bactofencin A, in the assay on L. reuteri CCUG 32624, the “Inhibition, L. reuteri CCUG 32624” value is “−”. In addition, the “Inhibition, L. fermentum NCCB 46038” value in the assay with L. fermentum NCCB 46038 [1] was “+”. Besides, in [2], the “Inhibition, P. pentosaceus NCCB 31016” value is listed as “+”. The “Inhibition, E. faecium NCCB 86023” value in the assay on E. faecium NCCB 86023 is listed as “+”. For the same substance, the “Inhibition, W. confusa CCUG30113” value with W. confusa CCUG30113 is listed as “−”. Further, the “Inhibition, W. confusa CCUG30943” value with W. confusa CCUG30943 is given as “−”. Also, in the assay with L. lactis NCCB 26066, the “Inhibition, L. lactis NCCB 26066” value is recorded as “+”. For the same substance, the “Inhibition, L. delbrueckii CCUG 34222” value in assay [3] is recorded as “+”.

As for Coagulin A, the “Inhibition, L. reuteri CCUG 32624” value in the assay with L. reuteri CCUG 32624 is reported as “−”. Moreover, the “Inhibition, L. fermentum NCCB 46038” value in the assay with L. fermentum NCCB 46038 [1] is on record as “−”. Further, the “Inhibition, P. pentosaceus NCCB 31016” value in assay [2] is “+”. The “Inhibition, E. faecium NCCB 86023” value in the assay on E. faecium NCCB 86023 is reported as “+”. Also, the “Inhibition, W. confusa CCUG30113” value in the assay with W. confusa CCUG30113 is on record as “−”. Besides, the “Inhibition, W. confusa CCUG30943” value in the assay with W. confusa CCUG30943 is “−”. Moreover, the “Inhibition, L. lactis NCCB 26066” value in the assay with L. lactis NCCB 26066 is “+”. In addition, the “Inhibition, L. delbrueckii CCUG 34222” value in assay [3] is reported as “+”.

For “Engineered pediocin PA-1 with [K20A] (KYYGNGVTCGKHSCSVDWGAATTCIINNGAMAWATGGHQGNHKC; ends and bridges not checked; cysteine pairing not given here) [pediocin PA-1 K20A]”, the “Growth inhibition zone (halo) of P. pentosaceus” value in [4] is “Growth inhibition zones of P. pentosaceus were observable”. Further, the “Growth inhibition zone (halo) of L. delbrueckii” value in assay [5] is given as “Growth inhibition zones of L. delbrueckii were observable”.

“Engineered pediocin PA-1 with [S13A] (KYYGNGVTCGKHACSVDWGKATTCIINNGAMAWATGGHQGNHKC; ends and bridges not checked; cysteine pairing not given here) [pediocin PA-1 S13A]”: the “Growth inhibition zone (halo) of P. pentosaceus” value in assay [4] was “Growth inhibition zones of P. pentosaceus were observable”. Besides, the “Growth inhibition zone (halo) of L. delbrueckii” value in assay [5] is listed as “Growth inhibition zones of L. delbrueckii were observable”.

Consider “Engineered pediocin PA-1 with [S15A] (KYYGNGVTCGKHSCAVDWGKATTCIINNGAMAWATGGHQGNHKC; ends and bridges not checked; cysteine pairing not given here) [pediocin PA-1 S15A]”, for which the “Growth inhibition zone (halo) of P. pentosaceus” value in assay [4] is “Growth inhibition zones of P. pentosaceus were observable”. In assay [5], the “Growth inhibition zone (halo) of L. delbrueckii” value is “Growth inhibition zones of L. delbrueckii were observable”.

With “Engineered pediocin PA-1 with [pediocin PA-1 G19A, Engineered pediocin PA-1 with [G19A]]”, the “Growth inhibition zone (halo) of P. pentosaceus” value in assay [4] is recorded as “Growth inhibition zones of P. pentosaceus were observable”.

With “Engineered pediocin PA-1 with [pediocin PA-1 K1A, Engineered pediocin PA-1 with [K1A]]”, in assay [4], the “Growth inhibition zone (halo) of P. pentosaceus” value is recorded as “largest halo”. Also, the “Growth inhibition zone (halo) of L. delbrueckii” value in assay [5] is “largest halo”.

As for “Engineered pediocin PA-1 with [pediocin PA-1 K1A/G19A, Engineered pediocin PA-1 with [K1A/G19A]]”, the “Growth inhibition zone (halo) of P. pentosaceus” value in assay [4] is “Growth inhibition zones of P. pentosaceus and L. delbrueckii were observable”. Besides, in assay [5], the “Growth inhibition zone (halo) of L. delbrueckii” value is “Growth inhibition zones of P. pentosaceus and L. delbrueckii were observable”.

“Engineered pediocin PA-1 with [pediocin PA-1 K1A/K20A, Engineered pediocin PA-1 with [K1A/K20A]]”: the “Growth inhibition zone (halo) of P. pentosaceus” value in [4] was “Growth inhibition zones of P. pentosaceus and L. delbrueckii were observable”. Also, the “Growth inhibition zone (halo) of L. delbrueckii” value in assay [5] was “Growth inhibition zones of P. pentosaceus and L. delbrueckii were observable”.

“Engineered pediocin PA-1 with [pediocin PA-1 K1A/S13A, Engineered pediocin PA-1 with [K1A/S13A]]”: the “Growth inhibition zone (halo) of P. pentosaceus” value in assay [4] is “Growth inhibition zones of P. pentosaceus and L. delbrueckii were observable”. Also, the “Growth inhibition zone (halo) of L. delbrueckii” value in [5] is “Growth inhibition zones of P. pentosaceus and L. delbrueckii were observable”.

As to “Engineered pediocin PA-1 with [pediocin PA-1 K1A/S15A, Engineered pediocin PA-1 with [K1A/S15A]]”, the “Growth inhibition zone (halo) of P. pentosaceus” value in assay [4] is “Growth inhibition zones of P. pentosaceus and L. delbrueckii were observable”. Moreover, the “Growth inhibition zone (halo) of L. delbrueckii” value in assay [5] was “Growth inhibition zones of P. pentosaceus and L. delbrueckii were observable”.

Turning to “Engineered pediocin PA-1 with [pediocin PA-1 K1A/T22A, Engineered pediocin PA-1 with [K1A/T22A]]”, the “Growth inhibition zone (halo) of P. pentosaceus” value in assay [4] is listed as “largest halo”.

Consider “Engineered pediocin PA-1 with [pediocin PA-1 K1T, Engineered pediocin PA-1 with [K1T]]”, for which the “Growth inhibition zone (halo) of L. delbrueckii” value in assay [5] is recorded as “slightly bigger halo than wild-type pediocin PA-1; also recorded: Growth inhibition zones were observable”.

In the case of “Engineered pediocin PA-1 with [pediocin PA-1 T22A, Engineered pediocin PA-1 with [T22A]]”, the “Growth inhibition zone (halo) of P. pentosaceus” value in [4] was “Growth inhibition zones of P. pentosaceus were observable”.

Enterocin A: the “Inhibition, L. reuteri CCUG 32624” value in the assay on L. reuteri CCUG 32624 was “−”. The “Inhibition, L. fermentum NCCB 46038” value with L. fermentum NCCB 46038 [1] is “−”. The “Inhibition, P. pentosaceus NCCB 31016” value in assay [2] is “+”. In addition, the “Inhibition, E. faecium NCCB 86023” value in the assay on E. faecium NCCB 86023 is given as “−”. Further, the “Inhibition, W. confusa CCUG30113” value in the assay on W. confusa CCUG30113 is on record as “−”. Moreover, the “Inhibition, W. confusa CCUG30943” value in the assay on W. confusa CCUG30943 was “−”. The “Inhibition, L. lactis NCCB 26066” value with L. lactis NCCB 26066 is “+”. Moreover, the “Inhibition, L. delbrueckii CCUG 34222” value in assay [3] is reported as “+”.

As for Hiracin JM79, the “Inhibition, L. reuteri CCUG 32624” value in the assay on L. reuteri CCUG 32624 is reported as “−”. Also, the “Inhibition, L. fermentum NCCB 46038” value in the assay with L. fermentum NCCB 46038 [1] is recorded as “−”. Besides, in assay [2], the “Inhibition, P. pentosaceus NCCB 31016” value is “−”. For the same substance, the “Inhibition, E. faecium NCCB 86023” value in the assay on E. faecium NCCB 86023 is “+”. Also, the “Inhibition, W. confusa CCUG30113” value in the assay on W. confusa CCUG30113 is “−”. Moreover, the “Inhibition, W. confusa CCUG30943” value in the assay on W. confusa CCUG30943 is “−”. The “Inhibition, L. lactis NCCB 26066” value with L. lactis NCCB 26066 is recorded as “−”. In assay [3], the “Inhibition, L. delbrueckii CCUG 34222” value is given as “−”.

For the substance Leucocin C, in the assay on L. reuteri CCUG 32624, the “Inhibition, L. reuteri CCUG 32624” value is “−”. In the assay on L. fermentum NCCB 46038 [1], the “Inhibition, L. fermentum NCCB 46038” value is listed as “−”. For the same substance, the “Inhibition, P. pentosaceus NCCB 31016” value in assay [2] is recorded as “+”. Besides, the “Inhibition, E. faecium NCCB 86023” value with E. faecium NCCB 86023 is “+”. Also, in the assay with W. confusa CCUG30113, the “Inhibition, W. confusa CCUG30113” value is reported as “−”. Further, in the assay on W. confusa CCUG30943, the “Inhibition, W. confusa CCUG30943” value is “−”. Besides, in the assay with L. lactis NCCB 26066, the “Inhibition, L. lactis NCCB 26066” value is “+”. Besides, the “Inhibition, L. delbrueckii CCUG 34222” value in [3] is “+”.

On to “Q8A: persulcatusin (SEQ ID NO: 1) alanine-scan variant Q8A (GFGCPFNAGACHRHCRSIGRRGGYCAGLFKQTCTCYSR; listed as Ixodes persulcatus) [Mutation Q8A]”, for which the Change in activity entry in the assay on L. fermentum NCCB 46038 [6] is “−”.

Consider “Q31A: persulcatusin (SEQ ID NO: 1) alanine-scan variant Q31A (GFGCPFNQGACHRHCRSIGRRGGYCAGLFKATCTCYSR; listed as Ixodes persulcatus) [Mutation Q31A]”, for which, in the assay on L. fermentum NCCB 46038 [6], the Change in activity result is reported as “−”.

As to “S17A: persulcatusin (SEQ ID NO: 1) alanine-scan variant S17A (GFGCPFNQGACHRHCRAIGRRGGYCAGLFKQTCTCYSR; listed as Ixodes persulcatus) [Mutation S17A]”, in the assay on L. fermentum NCCB 46038 [6], the Change in activity entry is recorded as “−”.

For “T32A: persulcatusin (SEQ ID NO: 1) alanine-scan variant T32A (GFGCPFNQGACHRHCRSIGRRGGYCAGLFKQACTCYSR; listed as Ixodes persulcatus) [Mutation T32A]”, the Change in activity entry with L. fermentum NCCB 46038 [6] is on record as “−”.

On to “T34A: persulcatusin (SEQ ID NO: 1) alanine-scan variant T34A (GFGCPFNQGACHRHCRSIGRRGGYCAGLFKQTCACYSR; listed as Ixodes persulcatus) [Mutation T34A]”, for which the Change in activity result in the assay on L. fermentum NCCB 46038 [6] was “−”.

Take Ubericin A: the “Inhibition, L. reuteri CCUG 32624” value in the assay on L. reuteri CCUG 32624 is “−”. In the assay with L. fermentum NCCB 46038 [1], the “Inhibition, L. fermentum NCCB 46038” value was “−”. In addition, the “Inhibition, P. pentosaceus NCCB 31016” value in assay [2] is “+”. The “Inhibition, E. faecium NCCB 86023” value in the assay with E. faecium NCCB 86023 was “−”. For the same substance, in the assay with W. confusa CCUG30113, the “Inhibition, W. confusa CCUG30113” value is on record as “−”. In addition, the “Inhibition, W. confusa CCUG30943” value in the assay on W. confusa CCUG30943 is reported as “−”. In addition, in the assay with L. lactis NCCB 26066, the “Inhibition, L. lactis NCCB 26066” value is reported as “+”. Besides, the “Inhibition, L. delbrueckii CCUG 34222” value in assay [3] was “+”.

For “Y24A: persulcatusin (SEQ ID NO: 1) alanine-scan variant Y24A (GFGCPFNQGACHRHCRSIGRRGGACAGLFKQTCTCYSR; listed as Ixodes persulcatus) [Mutation Y24A]”, the Change in activity result with L. fermentum NCCB 46038 [6] was “−”.

In the case of “Y36A: persulcatusin (SEQ ID NO: 1) alanine-scan variant Y36A (GFGCPFNQGACHRHCRSIGRRGGYCAGLFKQTCTCASR; listed as Ixodes persulcatus) [Mutation Y36A]”, the Change in activity entry in the assay with L. fermentum NCCB 46038 [6] is given as “−”.
